We go through four molecules from US20090105172A1, “Stabilized Aptamers to PSMA and Their Use as Prostate Cancer Therapeutics” (priority 2005, published 2009).

Strand notation (5' to 3'): a small letter for the sugar, then the base; units joined by * are phosphorothioate-linked, units joined directly phosphodiester-linked; [ ] holds rarer units or linkages, { } end groups; capitals alone tell only the bases. {NH2} = amine modification, hexylamine terminal group for chemical coupling; [invdT] = inverted (3'-3') thymidine; d = 2'-deoxy (DNA); m = 2'-O-methyl; r = 2'-OH (RNA); f = 2'-fluoro

The conditions of data set [1]: docetaxel in combination with prednisone (cited clinical trial, not the aptamer), every three weeks; cited from earlier work.
Data set [2] is described as follows: Plasma stability time course assay. Type of data set: in vitro ADME. To be noted: 95% human plasma, 37° C. The protocol: Plasma stability of each construct was measured using a plasma stability time course assay over 0, 1, 3, 10, 30, and 100 hours. A reaction was set up for each aptamer tested in an eppendorf tube using 95% human plasma (20 μl per time point), an appropriate concentration of aptamer (determined by the highest predicted dosing level (CMax)), and a sufficient amount of spiked 5′-end labeled aptamer such that a 1:10 dilution of the reaction will be over 1000 cpm, brought to total volume with 1×PBS. When assembling the reaction, the plasma was added last, and the reactions were immediately added to a 37° C. heat block. A reaction for each aptamer tested containing 1×PBS instead of plasma was used as a 0 hour time point. At each designated time point, 20 μl was withdrawn from each reaction and added to an appropriately labeled eppendorf tube containing 200 μl of formamide loading dye, and was immediately snap frozen in liquid nitrogen and stored at −20° C. After all the samples were collected 20 μl of each plasma sample/loading dye was aliquoted into separate tubes, and 2 μl of 1% SDS was added to each tube (final SDS concentration 0.1%). The samples containing 0.1% SDS were heated at 90° C. for 10-15 minutes. […]
The percentage of the parent aptamer remaining for each time-point was determined by quantifying the parent aptamer band and dividing by the total counts in the lane. […]

Data set [3] addresses PSMA NAALADase activity (Homo sapiens, UniProt Q04609). The data set is described as follows: NAALADase inhibition assay. The format is biochemical. To be noted: relative to parent. The procedure:
These point mutant constructs were assessed for activity in terms of inhibition of PSMA NAALADase activity. The NAALADase assay was performed in 96 well format. PSMA aptamers were serially diluted in 1× reaction buffer (40 mM Tris-HCl, pH 7.4, 0.1 mM ZnSO4, 0.1 mg/in L BSA) in a standard 96 well plate to be tested at a final concentration range from 30 pM to 1 μM. The enzyme was prepared by diluting 30 μL of 100 nM PSMA into 8 mL of reaction buffer, and kept cool on ice. The substrate was prepared by adding 19 μl of NAAG [Glutamate-3,4-^3H], 50.8 Ci/mmol, 19.7 μM (Perkin-Elmer, Wellesley, Mass., NET1082) into 2.2 mL of reaction buffer.
Following preparation of all reagents, 4 μl of each serially diluted aptamer was added to a separate 96 well plate (the reaction plate). 76 μl of diluted enzyme was added to the corresponding wells containing aptamer. 80 μl of reaction buffer was added to one column of wells to serve as a background control. The diluted substrate and reaction plate were then moved to a room at 37° C. and allowed to equilibrate for 10 minutes. After temperature equilibration, 20 μl of the prepared substrate was added to each well using a 12 channel pipet for a final volume of 100 μl/well, and a final concentration of […] enzyme and 30 nM substrate per well. A column of wells containing enzyme and substrate only was used as a high control. The aptamer/enzyme/substrate reaction was incubated at 37° C. for 15 minutes, and stopped by the addition of 100 μl of quench buffer (100 mM sodium phosphate, pH 7.4, 2 mM EDTA).
To separate the cleavage products, […] and Glutamate, from the substrate, an AG 1-X8, 200-400 mesh, formate resin (BioRad, Hercules, Calif., # 140-1454) was used. The resin was prepared by forming a 1:1 slurry in H2O, and adding 140 μl per 96 well using a Multiscreen filter plate (Multiscreen, 1.2 μm filter plates (Millipore, Billerica, Mass., # MABVN1250)). […] The plate was sealed and read using a Packard Topcount Microplate Scintillation Counter. […]

In data set [4] the test system is LNCaP cells (PSMA+). The data set can be described thus: LNCaP FACS binding assay with fluorescein-labeled aptamers. Type of data set: cell-based. To be noted: FACS histogram. The procedure: To prepare aptamers for the FACS assay, PSMA aptamers were serially diluted (0-1 uM) in FACS buffer (1×DPBS w/Ca^++/Mg^++ (Gibco, Carlsbad, Calif.) supplemented with 10 mg/mL salmon sperm DNA & 0.2% Na Azide), in a V-bottom 96 well plate, at the concentrations to be tested. LNCaP and PC-3 cells (ATCC, Manassas, Va.) were harvested with trypsin, and 200,000 cells/well were counted, washed once with 1×DPBS (with Ca^++ and Mg^+) and resuspended in 200 μl of FACS Buffer. The 200 μl of cells in FACS buffer were added to individual wells of a new 96 well plate, pelleted by centrifugation (1300 rpm for 5 minutes), and resuspended in 100 μl of the appropriate concentration of diluted aptamer. FACS buffer, a-PSMA antibody (3C6) (Northwest Biotherapeutics, Bothell, Wash., Cat #: 60-5002) and an irrelevant fluorescein isothiocyanate (“FITC”) mouse IgG1 isotype control antibody (BD Pharmingen, San Diego, Calif., Cat#: 554679) were used as controls. The wells of aptamer/cell mixture were incubated at room temperature for 20-30 minutes.
After incubation, 180 μl of FACS buffer (plus 10 mg/mL ssDNA, and 0.2% Na Azide) was added to each well to quench the reaction and cells were pelleted by centrifugation.
Anti-fluorescein/Oregon Green®, rabbit IgG fraction, Alexa Fluor® 488 conjugate (Molecular Probes, Eugene, Oreg., Cat#: A11090) was diluted 1:100 in FACS buffer (100 μl/well) as the secondary antibody for the aptamer-FITC conjugates and FITC-mouse IgG isotype control. FITC Rat anti-mouse IgG1 (A85-1) (BD Pharmingen, San Diego, Calif., Cat#: 553443) was diluted in 1:100 in FACS Buffer as the secondary for the α-PSMA antibody. After centrifugation, the cell pellets were resuspended in 100 μl of the appropriate diluted secondary antibody, and incubated 10 minutes at room temperature. After incubation, 180 μl of FACS buffer was added to each well to quench the reaction, and cells were pelleted by centrifugation.
A tertiary antibody which recognizes the Alexa Fluor® 488 goat anti-rabbit IgG was prepared to further amplify the Alexa Fluor signal. Alexa Fluor® 488 goat anti-rabbit IgG (H+ L) (Molecular Probes, Eugene, Oreg., Cat#: A11034) was diluted 1:100 in FACS buffer, and the pelleted cells were resupsended in 100 μl of the tertiary antibody and incubated for 10 minutes at room temperature. […]
(§1) Cell samples were analyzed on a FACS Scan machine (Becton Dickinson, San Jose, Calif.) under the following parameters: FSC/SSC, FL-1/FSC, FL-3/FSC. The unstained and/or isotype controls were used to establish gating parameters, and the data was analyzed using Cell Quest Pro software version 5.1.1 (Becton Dickinson Immunocytometry Systems, San Jose, Calif.).

In data set [5] the test system is PC-3 cells (PSMA−). The data set is described as follows: FACS binding assay, control cell line. To be noted: FACS histogram. Type of data set: cell-based. The procedure: To prepare aptamers for the FACS assay, PSMA aptamers were serially diluted (0-1 uM) in FACS buffer (1×DPBS w/Ca^++/Mg^++ (Gibco, Carlsbad, Calif.) supplemented with 10 mg/mL salmon sperm DNA & 0.2% Na Azide), in a V-bottom 96 well plate, at the concentrations to be tested. LNCaP and PC-3 cells (ATCC, Manassas, Va.) were harvested with trypsin, and 200,000 cells/well were counted, washed once with 1×DPBS (with Ca^++ and Mg^+) and resuspended in 200 μl of FACS Buffer. The 200 μl of cells in FACS buffer were added to individual wells of a new 96 well plate, pelleted by centrifugation (1300 rpm for 5 minutes), and resuspended in 100 μl of the appropriate concentration of diluted aptamer. FACS buffer, a-PSMA antibody (3C6) (Northwest Biotherapeutics, Bothell, Wash., Cat #: 60-5002) and an irrelevant fluorescein isothiocyanate (“FITC”) mouse IgG1 isotype control antibody (BD Pharmingen, San Diego, Calif., Cat#: 554679) were used as controls. The wells of aptamer/cell mixture were incubated at room temperature for 20-30 minutes. […]
as §1
On the technique in general: A flow cytometer gives signals particle by particle.

Sequence of PSMA NAALADase activity (Q04609 with tags, fused parts or gaps limits assumed): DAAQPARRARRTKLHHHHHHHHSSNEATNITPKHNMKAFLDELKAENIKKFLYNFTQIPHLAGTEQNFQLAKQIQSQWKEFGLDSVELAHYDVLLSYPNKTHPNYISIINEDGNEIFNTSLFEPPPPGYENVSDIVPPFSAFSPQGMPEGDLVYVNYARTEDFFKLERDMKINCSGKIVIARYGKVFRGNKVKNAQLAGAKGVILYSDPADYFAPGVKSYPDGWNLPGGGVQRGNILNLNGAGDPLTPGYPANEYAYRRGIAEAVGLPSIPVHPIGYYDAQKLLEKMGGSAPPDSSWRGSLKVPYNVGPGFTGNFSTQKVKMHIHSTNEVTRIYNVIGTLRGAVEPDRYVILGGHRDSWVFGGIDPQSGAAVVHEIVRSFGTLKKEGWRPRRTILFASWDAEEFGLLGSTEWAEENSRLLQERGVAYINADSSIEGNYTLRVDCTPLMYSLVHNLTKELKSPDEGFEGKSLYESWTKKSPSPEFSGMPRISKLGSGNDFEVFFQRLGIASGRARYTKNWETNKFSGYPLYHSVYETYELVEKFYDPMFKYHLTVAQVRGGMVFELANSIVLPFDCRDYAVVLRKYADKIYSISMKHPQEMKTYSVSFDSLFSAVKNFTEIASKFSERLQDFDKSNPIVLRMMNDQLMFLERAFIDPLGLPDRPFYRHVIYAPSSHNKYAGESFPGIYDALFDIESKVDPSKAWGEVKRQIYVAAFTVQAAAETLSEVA

As for `CC(=O)O[C@@]12CO[C@@H]1C[C@H](O)[C@@]1(C)C(=O)[C@H](O)C3=C(C)[C@@H](OC(=O)[C@H](O)[C@@H](NC(=O)OC(C)(C)C)c4ccccc4)C[C@@](O)([C@@H](OC(=O)c4ccccc4)[C@H]21)C3(C)C` [Taxotere, docetaxel], in data set [1], the “survival advantage over control group (mitoxantrone and prednisone)” value is listed as “approximately 2.5 months”.

Consider “NH2-mCmGmGmAfCfCmGAAfCAmAmGmGmCfCfUGAfCfUfUfCfUAfUAfCfUAAmGmCmCmUAfCmGfUmUmCmCmG-3T ({NH2}-mCmGmGmAfCfCmGrArAfCrAmAmGmGmCfCfUrGrAfCfUfUfCfUrAfUrAfCfUrArAmGmCmCmUrAfCmGfUmUmCmCmG[invdT]; further chemistry not fully specified) [ARC1113, ribo-containing aptamer based on ARC 591 with fully-stabilized helical stems and a 3′-cap]”, for which the “half life (T1/2) in plasma” value in data set [2] came to 20 h.

With “mCmGmGmAfCfCmGdAdAfCmAmAmGmGmCfCfU-s-dGmAfCfUfUfCfUmAfUmAfCfUdAmAmGmCmCmUmAfCmGfUmUmCmCmG-3T (mCmGmGmAfCfCmGdAdAfCmAmAmGmGmCfCfU*dGmAfCfUfUfCfUmAfUmAfCfUdAmAmGmCmCmUmAfCmGfUmUmCmCmG[invdT]) [ARC1725, ribo-free version based on ARC591]”, in data set [2], the “half life (T1/2) in plasma” value is 11 h. In data set [3], the “activity in the NAALADase inhibition assay” value is “retained full activity”.

B1: GGGAGGACGAUGCGGACCGAAAAAGACCUGAfCfIUfCfUAfUAfCfUAAGfUfCfUAf CGfTUIJfCfCfCAGAfCGAfCfUfCGfCfCfCGA (nucleic acid)
chain: GGGAGGACGAUGCGGACCGAAAAAGACCUGACUUCUAUACUAAGUCUACGUUCCCAGACGACUCGCCCGA
modifications: 2'-fluoro at CU, RNA at AG, backbone not given here
notes: existing PSMA specific aptamer of rRfY composition from U.S. Ser. No. 09/978,969
With B1, the “binding to LNCaP (PSMA+) cells” value in data set [4] is “binding to LNCaP (PSMA+) cells”. In data set [5], the “binding to PC-3 (PSMA−) cells” value is listed as “not to PC-3 (PSMA−) cells”.
